Reference: PubChem BioAssay (NCI)
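Growth conditions: 96-well plates. Treatment: test compound, 48 hours, 5 concentrations. Analysis: linear interpolation between bracketing concentrations; unreached endpoints set to highest concentration. Here, GI50 denotes the concentration required for 50% inhibition of growth. TGI denotes the concentration required for complete inhibition of growth.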

Legend:
Experiment in all cases: NCI tumour cell line growth inhibition, 48 h
786-0 renal = test system: 786-0 renal
A498 renal = test system: A498 renal
A549 NSCLC = test system: A549 NSCLC
ACHN renal = test system: ACHN renal
BT-549 breast = test system: BT-549 breast
CAKI-1 renal = test system: CAKI-1 renal
CCRF-CEM leukemia = test system: CCRF-CEM leukemia
COLO 205 colon = test system: COLO 205 colon
DU-145 prostate = test system: DU-145 prostate
EKVX NSCLC = test system: EKVX NSCLC
HCC-2998 colon = test system: HCC-2998 colon
HCT-116 colon = test system: HCT-116 colon
HCT-15 colon = test system: HCT-15 colon
HL-60(TB) leukemia = test system: HL-60(TB) leukemia
HOP-62 NSCLC = test system: HOP-62 NSCLC
HOP-92 NSCLC = test system: HOP-92 NSCLC
HS 578T breast = test system: HS 578T breast
HT29 colon = test system: HT29 colon
IGROV1 ovarian = test system: IGROV1 ovarian
K-562 leukemia = test system: K-562 leukemia
KM12 colon = test system: KM12 colon
LOX IMVI melanoma = test system: LOX IMVI melanoma
M14 melanoma = test system: M14 melanoma
MALME-3M melanoma = test system: MALME-3M melanoma
MCF7 breast = test system: MCF7 breast
MDA-MB-231 breast = test system: MDA-MB-231 breast
MDA-MB-435 = test system: MDA-MB-435
MDA-MB-468 breast = test system: MDA-MB-468 breast
MOLT-4 leukemia = test system: MOLT-4 leukemia
NCI-H226 lung = test system: NCI-H226 lung
NCI-H23 lung = test system: NCI-H23 lung
NCI-H460 lung = test system: NCI-H460 lung
NCI-H522 lung = test system: NCI-H522 lung
OVCAR-3 ovarian = test system: OVCAR-3 ovarian
OVCAR-4 ovarian = test system: OVCAR-4 ovarian
OVCAR-5 ovarian = test system: OVCAR-5 ovarian
OVCAR-8 ovarian = test system: OVCAR-8 ovarian
PC-3 prostate = test system: PC-3 prostate
RPMI-8226 leukemia = test system: RPMI-8226 leukemia
RXF 393 renal = test system: RXF 393 renal
SF-268 CNS = test system: SF-268 CNS
SF-295 CNS = test system: SF-295 CNS
SF-539 CNS = test system: SF-539 CNS
SK-MEL-2 melanoma = test system: SK-MEL-2 melanoma
SK-MEL-28 melanoma = test system: SK-MEL-28 melanoma
SK-MEL-5 melanoma = test system: SK-MEL-5 melanoma
SK-OV-3 ovarian = test system: SK-OV-3 ovarian
SN12C renal = test system: SN12C renal
SNB-19 CNS = test system: SNB-19 CNS
SNB-75 CNS = test system: SNB-75 CNS
SR leukemia = test system: SR leukemia
SW-620 colon = test system: SW-620 colon
T-47D breast = test system: T-47D breast
TK-10 renal = test system: TK-10 renal
U251 CNS = test system: U251 CNS
UACC-257 melanoma = test system: UACC-257 melanoma
UACC-62 melanoma = test system: UACC-62 melanoma
UO-31 renal = test system: UO-31 renal

`O=C(c1ccc(Cl)cc1)C1[C@H](c2ccccc2Br)[C@@H](c2ccccc2)NC12C(=O)Nc1ccc(Cl)cc12` (stereo partly specified) gave a GI50 (786-0 renal) of 9.38 µM, a TGI (786-0 renal) of 18.8 µM and a GI50 (A498 renal) of 9.4 µM. It also gave a TGI (A498 renal) of 19.3 µM, a GI50 (A549 NSCLC) of 9.83 µM and a TGI (A549 NSCLC) of 20.2 µM. The GI50 (ACHN renal) was 9.94 µM, the TGI (ACHN renal) was 18.9 µM and the GI50 (BT-549 breast) was 7.87 µM. For the same compound, the TGI (BT-549 breast) was 15.7 µM, the GI50 (CAKI-1 renal) was 8.96 µM and the TGI (CAKI-1 renal) was 17.4 µM. It also gave a GI50 (CCRF-CEM leukemia) of 13.6 µM, a TGI (CCRF-CEM leukemia) of 35.1 µM and a GI50 (COLO 205 colon) of 9.34 µM. It also gave a TGI (COLO 205 colon) of 17.3 µM, a GI50 (DU-145 prostate) of 11.1 µM and a TGI (DU-145 prostate) of 22.4 µM. It also gave a GI50 (EKVX NSCLC) of 10.6 µM, a TGI (EKVX NSCLC) of 26 µM and a GI50 (HCC-2998 colon) of 9.28 µM. It also gave a TGI (HCC-2998 colon) of 17.4 µM, a GI50 (HCT-116 colon) of 9 µM and a TGI (HCT-116 colon) of 17.5 µM. The GI50 (HCT-15 colon) was 10.2 µM, the TGI (HCT-15 colon) was 20 µM and the GI50 (HL-60(TB) leukemia) was 13.2 µM. For the same compound, the TGI (HL-60(TB) leukemia) was 36.7 µM, the GI50 (HOP-62 NSCLC) was 8.65 µM and the TGI (HOP-62 NSCLC) was 16.4 µM. It also gave a GI50 (HOP-92 NSCLC) of 8.37 µM, a TGI (HOP-92 NSCLC) of 16.3 µM and a GI50 (HS 578T breast) of 11 µM. It also gave a TGI (HS 578T breast) of 27.1 µM, a GI50 (HT29 colon) of 9.35 µM and a TGI (HT29 colon) of 18.5 µM. It also gave a GI50 (IGROV1 ovarian) of 9.73 µM, a TGI (IGROV1 ovarian) of 19.1 µM and a GI50 (K-562 leukemia) of 18.5 µM. It also gave a TGI (K-562 leukemia) of 52.8 µM, a GI50 (KM12 colon) of 11.5 µM and a TGI (KM12 colon) of 25.2 µM. It also gave a GI50 (LOX IMVI melanoma) of 9.69 µM, a TGI (LOX IMVI melanoma) of 19 µM and a GI50 (M14 melanoma) of 9.65 µM. For the same compound, the TGI (M14 melanoma) was 18.3 µM, the GI50 (MALME-3M melanoma) was 8.67 µM and the TGI (MALME-3M melanoma) was 16 µM. For the same compound, the GI50 (MCF7 breast) was 11.6 µM, the TGI (MCF7 breast) was 27.9 µM and the GI50 (MDA-MB-231 breast) was 8.98 µM. It also gave a TGI (MDA-MB-231 breast) of 16.5 µM, a GI50 (MDA-MB-435) of 10.4 µM and a TGI (MDA-MB-435) of 20.7 µM. For the same compound, the GI50 (MDA-MB-468 breast) was 9.09 µM, the TGI (MDA-MB-468 breast) was 17.3 µM and the GI50 (MOLT-4 leukemia) was 16 µM. The TGI (MOLT-4 leukemia) was 52.8 µM, the GI50 (NCI-H226 lung) was 8.69 µM and the TGI (NCI-H226 lung) was 17.2 µM. For the same compound, the GI50 (NCI-H23 lung) was 10.1 µM, the TGI (NCI-H23 lung) was 19.4 µM and the GI50 (NCI-H460 lung) was 9.54 µM. It also gave a TGI (NCI-H460 lung) of 18.9 µM, a GI50 (NCI-H522 lung) of 8.67 µM and a TGI (NCI-H522 lung) of 16.6 µM. The GI50 (OVCAR-3 ovarian) was 10.6 µM, the TGI (OVCAR-3 ovarian) was 22.7 µM and the GI50 (OVCAR-4 ovarian) was 11.8 µM. For the same compound, the TGI (OVCAR-4 ovarian) was 28.5 µM, the GI50 (OVCAR-5 ovarian) was 8.61 µM and the TGI (OVCAR-5 ovarian) was 16 µM. The GI50 (OVCAR-8 ovarian) was 9.6 µM, the TGI (OVCAR-8 ovarian) was 18 µM and the GI50 (PC-3 prostate) was 9.87 µM. The TGI (PC-3 prostate) was 20.1 µM, the GI50 (RPMI-8226 leukemia) was 15.9 µM and the TGI (RPMI-8226 leukemia) was 48.8 µM. It also gave a GI50 (RXF 393 renal) of 8.4 µM, a TGI (RXF 393 renal) of 16 µM and a GI50 (SF-268 CNS) of 10.8 µM. It also gave a TGI (SF-268 CNS) of 25.4 µM, a GI50 (SF-295 CNS) of 9.14 µM and a TGI (SF-295 CNS) of 18.9 µM. For the same compound, the GI50 (SF-539 CNS) was 9.17 µM, the TGI (SF-539 CNS) was 17 µM and the GI50 (SK-MEL-2 melanoma) was 9.22 µM. The TGI (SK-MEL-2 melanoma) was 16.9 µM, the GI50 (SK-MEL-28 melanoma) was 8.66 µM and the TGI (SK-MEL-28 melanoma) was 16 µM. It also gave a GI50 (SK-MEL-5 melanoma) of 9.44 µM, a TGI (SK-MEL-5 melanoma) of 16.9 µM and a GI50 (SK-OV-3 ovarian) of 12.4 µM. It also gave a TGI (SK-OV-3 ovarian) of 34.4 µM, a GI50 (SN12C renal) of 9.05 µM and a TGI (SN12C renal) of 16.4 µM. It also gave a GI50 (SNB-19 CNS) of 10.3 µM, a TGI (SNB-19 CNS) of 23.6 µM and a GI50 (SNB-75 CNS) of 8.31 µM. It also gave a TGI (SNB-75 CNS) of 26.9 µM, a GI50 (SR leukemia) of 13.5 µM and a TGI (SR leukemia) of 32 µM. The GI50 (SW-620 colon) was 9.58 µM, the TGI (SW-620 colon) was 19.2 µM and the GI50 (T-47D breast) was 9.06 µM. For the same compound, the TGI (T-47D breast) was 18.2 µM, the GI50 (TK-10 renal) was 8.71 µM and the TGI (TK-10 renal) was 17 µM. The GI50 (U251 CNS) was 9.17 µM, the TGI (U251 CNS) was 16.8 µM and the GI50 (UACC-257 melanoma) was 8.88 µM. For the same compound, the TGI (UACC-257 melanoma) was 16.7 µM, the GI50 (UACC-62 melanoma) was 8.63 µM and the TGI (UACC-62 melanoma) was 16 µM. For the same compound, the GI50 (UO-31 renal) was 8.01 µM and the TGI (UO-31 renal) was 15.1 µM.
